Source: patent US5360613A, “Method of reducing blood levels of total cholesterol and low-density lipoprotein cholesterol” (Iowa State University Research Foundation, Inc., priority 1993, dated 1994)

Experiments:
[1] = tested on: acetate incorporation into cholesterol by the rat liver; details: 0.5 g/kg body weight for 2 and 4 days; cited from earlier work
[2] = Human dose-response study, adverse effects (Example V); assay type: in vivo, humans; details: 0.5 to 4 g per day
Description: Higher dose levels than in Example IV of Ca-HMB were tested in humans. The objective was to obtain an indication of whether higher doses could be safely administered, and also whether higher doses might provide a greater reduction in total cholesterol and LDL cholesterol.
Normal humans were used in the study. Ca-HMB was administered in 250 mg capsules, and the subjects were instructed to take the capsules in 4 equal doses daily. No control of diet was attempted except they were instructed to eat as they normally would. On alternate days the subjects had blood drawn before the morning meal and before they took the morning HMB dose. Four subjects were studied for dose level of 05., 1, 2 and 4 grams per day.

blood cholesterol = assay: Controlled double-blind human study, blood cholesterol (Example IV, Table D); assay type: in vivo, humans
Description: In view of the findings of the foregoing examples, a human study was carried out.
In a controlled double-blind study, the effects of feeding HMB on loss of urinary nitrogen, blood cholesterol and immune function in normal humans were tested. This study also measured blood components that reflect liver, kidney and tissue metabolism. In addition further measurements of nitrogen metabolism and immune function were implemented. All measurements were made in a controlled dietary situation and under blinded conditions. Normal male subjects were used who had been screened for normalcy. Ca-HMB was administered in 250 mg capsules. The subjects were instructed to take the capsules in 4 equal doses daily (with meals and at bed time). The subject ate all their meals under controlled conditions. Normal diets were used, and the amount of the diets was controlled to maintain equal and substantially constant nitrogen intake. The subjects had blood drawn before the morning meal or before they took the morning HMB dose. Each subject was studied twice: once with a placebo and once with HMB.

plasma cholesterol = assay: Lamb feeding study, plasma cholesterol (Example II, Table B); assay type: in vivo, lambs
Description: In view of the encouraging results of Example I, a large mammal study was carried out with lambs. HMB was administered in the form of Ca-HMB.
Cross-bred lambs were obtained from a research flock. Males were selected from a pool of 108 rams while females were selected from a pool of 63 females. Selection was based on weight range, breed and previous performance. Breeding consisted of Dorset, Polypay and Suffold crosses. Males were divided into 5 weight blocks and females into 3 weight blocks. The two heaviest male blocks contained 27 lambs, allotted to 3 pens. All other blocks contained 18 lambs, allotted to 2 pens. Animals were weighed on consecutive days prior to starting the experiment. All animals were shorn 100 days into the experiment. The animals were housed in a single confinement unit with uniform pens. The feeders were concrete bunks with water supplied by several nipple waterers per pen. Dirt flooring was bedded with oat straw when necessary. Weight blocks were placed in adjacent pens with treatment randomly assigned to the blocks. The ration was complete in all nutrients for growing sheep. The diet was formulated to contain protein in excess of the normal requirement in an effort to assure that protein was not a limiting factor for any growth response. The feeding schedule consisted of two feedings per day with the amount controlled so that the animals had eaten all the feed from the previous feeding before being fed again. Also with the feed allotment, a top-dressing of 20 g of either a control premix containing HMB was added at the equivalent of 0.5 gram per animal per day and 1.5 gram per animal per day.
Ca-HMB was prepared by minor modification of the method of Coffman, et al. J. Am. […] Each batch was given a lot number and the purity assessed by high performance liquid chromatography. A single peak was measured when HMB was chromatographed on a C18 column and eluted with 0.01M phosphate buffer, pH 7.0. […]
Blood was collected from each animal. The plasma was analyzed for cholesterol using an Abbott Spectrum Diagnostic system. […] A linear effect of HMB level was evaluated.

[3] = tested on: plasma cholesterol and triglycerides; assay: Hamster feeding study, plasma cholesterol and triglycerides (Example I, Table A); assay type: in vivo, hamsters; details: for % Change HDL cholesterol / % Change HDL/LDL / % Change LDL cholesterol / % Change Total cholesterol / % Change Triglycerides: HMB vs control
Description: A preliminary experiment was carried out using hamsters as the test animal and Na-HMB as the therapeutic agent. The experimental details and the results obtained are described as follows.
Pregnant Female hamsters were housed and allowed to give birth. At three weeks of age, litters were subdivided into pairs within a sex. The pairs of hamsters were then assigned randomly a purified diet based on casein and cornstarch with either contained 0.1% NaCl (control) or one containing 0.1% Na-HMB (HMB). They were maintained on this diet for 6 weeks at which time they were killed by decapitation and blood collected into EDTA containing tubes. Blood was separated by centrifugation and plasma collected. The unfrozen plasma was treated with an LDL precipitating agent, centrifuged and the supernatant collected. The whole plasma and supernatant were assayed for cholesterol by an enzymatic method. Plasma cholesterol estimated total cholesterol while the supernatant represented HDL cholesterol. LDL cholesterol was estimated by the formula: LDL-Cholesterol=(Total cholesterol)-(HDL cholesterol)-(triglycerides X 0.2). Total triglycerides in plasma were estimated by an enzymatic assay.

[4] = HMB change net of placebo-group change
[5] = females, 0.1% Na-HMB diet, 6 weeks
[6] = males, 0.1% Na-HMB diet, 6 weeks

CC(C)(O)CC(=O)O [HMB, β-hydroxy-β-methylbutyric acid]
rate of acetate incorporation into cholesterol by the rat liver [1]: not significantly lowered
adverse affects [2]: no adverse affects
complaint noted with several patients [2]: being hungrier than normal
increase of HDL cholesterol (blood cholesterol; 2 g of HMB daily for two weeks): 11%
reduction of LDL cholesterol (blood cholesterol; 2 g of HMB daily for two weeks): 10%
reduction of total cholesterol (blood cholesterol; 2 g of HMB daily for two weeks): 6%
% Net Effect HMB, HDL Cholesterol (blood cholesterol; [4]): 11%
% Net Effect HMB, LDL Cholesterol (blood cholesterol; [4]): -10%
% Net Effect HMB, LDL/HDL (blood cholesterol; [4]): -25%
% Net Effect HMB, Total Cholesterol (blood cholesterol; [4]): -6%
% Change Trt. HDL Cholesterol (blood cholesterol; control to HMB treatment): 3%
% Change Trt. LDL Cholesterol (blood cholesterol; control to HMB treatment): -8%
% Change Trt. LDL/HDL (blood cholesterol; control to HMB treatment): -12%
% Change Trt. Total Cholesterol (blood cholesterol; control to HMB treatment): -10%
decrease of ratio of LDL to HDL (blood cholesterol; in two weeks): 25%
LDL cholesterol (blood cholesterol; treated group on HMB, Ca HMB 1.0 grams/24 hours, calculated, pre-treatment control 118): 107
LDL/HDL (blood cholesterol; treated group on HMB, Ca HMB 1.0 grams/24 hours, pre-treatment control 2.38): 2.10
HDL cholesterol (blood cholesterol; treated group on HMB, Ca HMB 1.0 grams/24 hours, pre-treatment control 49.5): 50.9
Total cholesterol (blood cholesterol; treated group on HMB, Ca HMB 1.0 grams/24 hours, pre-treatment control 187): 169
Plasma Cholesterol (plasma cholesterol; 0.5 g HMB daily (Ca-HMB), control 54.3, linear effect 0.05): 51.3
Plasma Cholesterol (plasma cholesterol; 1.5 g HMB daily (Ca-HMB), control 54.3, linear effect 0.05): 48.1
Plasma Cholesterol (plasma cholesterol; oral consumption, lambs): decreased plasma cholesterol
HDL cholesterol ([3]; females, 0.1% Na-HMB diet, 6 weeks, control 125): 132 mg %
Total cholesterol ([3]; females, 0.1% Na-HMB diet, 6 weeks, control 237): 228 mg %
Triglycerides ([3]; females, 0.1% Na-HMB diet, 6 weeks, control 240): 212 mg %
HDL/LDL ([3]; females, 0.1% Na-HMB diet, 6 weeks, control .51): .41
LDL cholesterol ([3]; females, 0.1% Na-HMB diet, 6 weeks, estimated by formula, control 64): 53 mg %
% Change HDL cholesterol [3, 5]: +5%
% Change HDL/LDL [3, 5]: -20%
% Change LDL cholesterol [3, 5]: -17%
% Change Total cholesterol [3, 5]: -4%
% Change Triglycerides [3, 5]: -11%
HDL cholesterol ([3]; hamsters): a trend to increase HDL cholesterol
LDL cholesterol ([3]; hamsters): markedly lower LDL cholesterol
ratio of LDL/HDL ([3]; hamsters): positively affected
HDL cholesterol ([3]; males, 0.1% Na-HMB diet, 6 weeks, control 111): 118 mg %
Total cholesterol ([3]; males, 0.1% Na-HMB diet, 6 weeks, control 217): 208 mg %
Triglycerides ([3]; males, 0.1% Na-HMB diet, 6 weeks, control 232): 226 mg %
HDL/LDL ([3]; males, 0.1% Na-HMB diet, 6 weeks, control .53): .38
LDL cholesterol ([3]; males, 0.1% Na-HMB diet, 6 weeks, estimated by formula, control 59): 45 mg %
% Change HDL cholesterol [3, 6]: +5%
% Change HDL/LDL [3, 6]: -28%
% Change LDL cholesterol [3, 6]: -24%
% Change Total cholesterol [3, 6]: -4%
% Change Triglycerides [3, 6]: -2%
